According to ChEMBL document CHEMBL5620394, “Synthesis of new antiproliferative 1,3,4-substituted-pyrrolo[3,2-c]quinoline derivatives, biological and in silico insights” (Eur J Med Chem, 2023):
Calls of active or inactive are those of the source. No cut-off for these calls is given here.

Experiments:
[1] = system: NCI-H292; test: Antiproliferative activity against human NCI-H292 cells assessed as inhibition of cell growth at >50 uM incubated for 4 hrs by MTS assay; type: functional, cell-based
[2] = system: MCF7; test: Antiproliferative activity against human MCF7 cells assessed as inhibition of cell growth at >50 uM incubated for 4 hrs by MTS assay; type: functional, cell-based
[3] = system: HeLa; test: Antiproliferative activity against human HeLa cells assessed as inhibition of cell growth at >50 uM incubated for 4 hrs by MTS assay; type: functional, cell-based
[4] = system: LA-N-5; test: Antiproliferative activity against human LA-N-5 cells assessed as inhibition of cell growth at 10 uM incubated for 4 hrs by MTS assay; type: functional, cell-based
[5] = Antiproliferative activity against human LA-N-5 cells assessed as inhibition of cell growth incubated for 4 hrs by MTS assay; type: functional
[6] = Antiproliferative activity against human 16HBE14o- cells assessed as inhibition of cell growth incubated for 4 hrs by MTS assay; type: toxicity, cell-based; conditions: read-out: IG50
[7] = system: HeLa; test: Antiproliferative activity against human HeLa cells assessed as inhibition of cell growth incubated for 4 hrs by MTS assay; type: functional
[8] = system: MCF7; test: Antiproliferative activity against human MCF7 cells assessed as inhibition of cell growth incubated for 4 hrs by MTS assay; type: functional
[9] = system: LA-N-5; test: Antiproliferative activity against human LA-N-5 cells assessed as reduction in cell growth at 10 to 100 uM incubated for 4 hrs by MTS assay; type: functional, cell-based; conditions: dose 10-100 µM
[10] = system: CCRF-CEM; test: Antiproliferative activity against human CCRF-CEM cells assessed as cell growth at 10 uM incubated for 48 hrs by sulforhodamine B assay relative to control; type: functional; conditions: read-out: Activity
[11] = system: HL-60; test: Antiproliferative activity against human HL-60 cells assessed as cell growth at 10 uM incubated for 48 hrs by sulforhodamine B assay relative to control; type: functional; conditions: read-out: Activity
[12] = system: K562; test: Antiproliferative activity against human K562 cells assessed as cell growth at 10 uM incubated for 48 hrs by sulforhodamine B assay relative to control; type: functional; conditions: read-out: Activity
[13] = system: MOLT-4; test: Antiproliferative activity against human MOLT-4 cells assessed as cell growth at 10 uM incubated for 48 hrs by sulforhodamine B assay relative to control; type: functional; conditions: read-out: Activity
[14] = system: RPMI-8226; test: Antiproliferative activity against human RPMI-8226 cells assessed as cell growth at 10 uM incubated for 48 hrs by sulforhodamine B assay relative to control; type: functional; conditions: read-out: Activity
[15] = system: SR; test: Antiproliferative activity against human SR cells assessed as cell growth at 10 uM incubated for 48 hrs by sulforhodamine B assay relative to control; type: functional; conditions: read-out: Activity
[16] = system: NCI-H226; test: Antiproliferative activity against human NCI-H226 cells assessed as cell growth at 10 uM incubated for 48 hrs by sulforhodamine B assay relative to control; type: functional; conditions: read-out: Activity
[17] = system: NCI-H522; test: Antiproliferative activity against human NCI-H522 cells assessed as cell growth at 10 uM incubated for 48 hrs by sulforhodamine B assay relative to control; type: functional; conditions: read-out: Activity
[18] = system: HT-29; test: Antiproliferative activity against human HT-29 cells assessed as cell growth at 10 uM incubated for 48 hrs by sulforhodamine B assay relative to control; type: functional; conditions: read-out: Activity
[19] = system: SNB-75; test: Antiproliferative activity against human SNB-75 cells assessed as cell growth at 10 uM incubated for 48 hrs by sulforhodamine B assay relative to control; type: functional; conditions: read-out: Activity
[20] = system: UACC-257; test: Antiproliferative activity against human UACC-257 cells assessed as cell growth at 10 uM incubated for 48 hrs by sulforhodamine B assay relative to control; type: functional; conditions: read-out: Activity
[21] = system: UACC-62; test: Antiproliferative activity against human UACC-62 cells assessed as cell growth at 10 uM incubated for 48 hrs by sulforhodamine B assay relative to control; type: functional; conditions: read-out: Activity
[22] = system: 786-0; test: Antiproliferative activity against human 786-0 cells assessed as cell growth at 10 uM incubated for 48 hrs by sulforhodamine B assay relative to control; type: functional; conditions: read-out: Activity
[23] = system: CAKI-1; test: Antiproliferative activity against human CAKI-1 cells assessed as cell growth at 10 uM incubated for 48 hrs by sulforhodamine B assay relative to control; type: functional; conditions: read-out: Activity
[24] = system: UO-31; test: Antiproliferative activity against human UO-31 cells assessed as cell growth at 10 uM incubated for 48 hrs by sulforhodamine B assay relative to control; type: functional; conditions: read-out: Activity
[25] = system: PC-3; test: Antiproliferative activity against human PC-3 cells assessed as cell growth at 10 uM incubated for 48 hrs by sulforhodamine B assay relative to control; type: functional; conditions: read-out: Activity
[26] = system: MCF7; test: Antiproliferative activity against human MCF7 cells assessed as cell growth at 10 uM incubated for 48 hrs by sulforhodamine B assay relative to control; type: functional; conditions: read-out: Activity
[27] = system: MDA-MB-231; test: Antiproliferative activity against human MDA-MB-231 cells assessed as cell growth at 10 uM incubated for 48 hrs by sulforhodamine B assay relative to control; type: functional; conditions: read-out: Activity
[28] = system: T47D; test: Antiproliferative activity against human T47D cells assessed as cell growth at 10 uM incubated for 48 hrs by sulforhodamine B assay relative to control; type: functional; conditions: read-out: Activity

CCn1c(C)c(C(C)=O)c2c(-c3ccccc3)nc3ccccc3c21
Activity [1]: Active
Activity [2]: Active
Activity [3]: Active
Activity [4]: Active
IG50 [5]: 1 µM
GI50 at 4 h [6]: 10 µM
IG50 [7]: 10 µM
IG50 [8]: 10 µM
Activity [9]: Active
growth at 10 µM [10]: 88.5%
growth at 10 µM [11]: 100%
growth at 10 µM [12]: 99.2%
growth at 10 µM [13]: 95.2%
growth at 10 µM [14]: 79.6%
growth at 10 µM [15]: 91.7%
growth at 10 µM [16]: 68.3%
growth at 10 µM [17]: 92.6%
growth at 10 µM [18]: 108%
growth at 10 µM [19]: 85.1%
growth at 10 µM [20]: 93.3%
growth at 10 µM [21]: 88.9%
growth at 10 µM [22]: 98.8%
growth at 10 µM [23]: 93.8%
growth at 10 µM [24]: 82.5%
growth at 10 µM [25]: 80.5%
growth at 10 µM [26]: 93.6%
growth at 10 µM [27]: 91.1%
growth at 10 µM [28]: 87%
